IC50 and EC50 data for one molecule are collected here from patent US20120329803A1, “Dihydropteridinones, method for production and use thereof” (BOEHRINGER INGELHEIM INTERNATIONAL GMBH, priority 2010, published 2012).

Each structure is given as a SMILES string. “And” between values parts separate entries of the source, which are not always exact repeats. Equal values may be shown once. Read-outs that look alike come from different tables or passages of the source.

Experiment [1] deals with T1, hERG channel (Homo sapiens, UniProt Q12809).
T1 construct: expressed in transfected cells; host or cells: HEK293 cells, stably transfected; cDNA from M. Sanguinetti, University of Utah
T1 sequence (Q12809 whole entry): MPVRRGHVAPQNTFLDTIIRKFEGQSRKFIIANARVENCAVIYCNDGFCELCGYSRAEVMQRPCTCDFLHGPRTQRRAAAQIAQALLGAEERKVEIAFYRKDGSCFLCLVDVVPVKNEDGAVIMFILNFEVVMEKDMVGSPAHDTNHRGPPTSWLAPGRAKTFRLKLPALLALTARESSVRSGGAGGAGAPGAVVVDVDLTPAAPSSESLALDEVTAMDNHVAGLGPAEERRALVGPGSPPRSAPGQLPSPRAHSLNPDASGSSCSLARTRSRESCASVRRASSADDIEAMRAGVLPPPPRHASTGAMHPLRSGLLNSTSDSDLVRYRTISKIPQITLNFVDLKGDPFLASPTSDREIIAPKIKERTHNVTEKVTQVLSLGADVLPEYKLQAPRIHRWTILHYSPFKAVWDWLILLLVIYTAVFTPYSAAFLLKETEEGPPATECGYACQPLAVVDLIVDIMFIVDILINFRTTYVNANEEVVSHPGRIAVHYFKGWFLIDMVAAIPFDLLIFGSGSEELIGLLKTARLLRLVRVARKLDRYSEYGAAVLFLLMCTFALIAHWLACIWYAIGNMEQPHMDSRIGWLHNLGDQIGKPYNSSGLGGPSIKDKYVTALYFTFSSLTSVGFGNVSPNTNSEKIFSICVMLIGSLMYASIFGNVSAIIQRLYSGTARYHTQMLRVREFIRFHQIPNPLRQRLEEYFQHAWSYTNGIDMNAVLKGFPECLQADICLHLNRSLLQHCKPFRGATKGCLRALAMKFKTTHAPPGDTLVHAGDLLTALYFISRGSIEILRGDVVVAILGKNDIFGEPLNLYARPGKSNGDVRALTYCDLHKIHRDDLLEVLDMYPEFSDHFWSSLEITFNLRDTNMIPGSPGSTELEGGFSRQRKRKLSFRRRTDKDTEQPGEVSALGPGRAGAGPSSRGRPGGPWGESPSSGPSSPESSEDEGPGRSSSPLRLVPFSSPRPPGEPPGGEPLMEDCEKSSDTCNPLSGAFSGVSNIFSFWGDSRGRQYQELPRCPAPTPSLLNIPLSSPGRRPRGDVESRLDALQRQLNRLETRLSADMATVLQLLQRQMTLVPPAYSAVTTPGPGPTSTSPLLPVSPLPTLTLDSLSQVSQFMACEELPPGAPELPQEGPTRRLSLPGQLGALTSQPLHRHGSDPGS
Nature of the experiment: hERG channel assay (whole-cell patch clamp). Type of experiment: cell-based. As to conditions: HEK 293 cells stably transfected with hERG; 0.3, 1, 3, 10 μM tested; read-out: residual currents value (half-inhibitory concentration from fit to residual hERG current). The method, then: HEK (human embryonic kidney) 293 cells are stably transfected with hERG cDNA (obtained courtesy of M. Sanguinetti, University of Utah). Cells determined for use in patch clamp experiments are plated on glass coverslips in 24 well plates and are cultivated without antibiotic during this time.
Coverslips are placed at the bottom of a 2 mL perfusion chamber mounted on the stage of an inverted microscope. Cells are superfused with a bath solution containing (mM): NaCl (137), KCl (4.0), MgCl2 (1.0), CaCl2 (1.8), Glucose (10), HEPES (10), pH 7.4 with NaOH. […]
Membrane currents are recorded using an EPC-10 or equivalent patch clamp amplifier (HEKA Electronics, Lambrecht, FRG) using the whole-cell configuration of the patch-clamp technique. hERG-mediated inactivating tail currents are elicited using a brief hyperpolarising pulse after channel inactivation at a depolarised potential.
Four concentrations of the compound of formula (12B) according to the present invention (0.3, 1, 3, 10 μM) are applied on different cells. A steady state level of baseline current is measured prior to the application of the test article. […]
Peak current amplitudes are measured for each hyperpolarising step. […] Residual currents (I/Io) are calculated for each cell as the fraction of actual average peak current and average baseline peak current. Current inhibition is expressed as (1−I/I0)*100%. […]
Background: The hERG channel carries a current that helps repolarise heart muscle cells.

The subject of experiment [2] is NCI-H460 human lung carcinoma cells. The experiment is described as follows: Alamar Blue cell proliferation assay, NCI-H460. As to conditions: 72 h. Type of experiment: cell-based. The method, then: (§1) Kinase assays are performed using full-length recombinant Plk1 enzyme produced in a baculovirus expression system and casein from bovine milk as a substrate. Results represent the means of 2 independent experiments with each data point measured in duplicate. NCI-H460 human non-small cell lung cancer and HCT 116 human colon carcinoma cell lines are used in Alamar Blue™ based proliferation assays. Results represent the means of 3 dose titrations for each cell line with each data point measured in duplicate. Two independent kinase assay experiments are carried out to determine the inhibitory activity of compound (12B) on the Plk1 enzyme. 7 concentrations of compound (12B) are used and each concentration is tested in duplicate measurements.
(§2) For each cell line a proliferation assay experiment is carried out to determine the EC50 values in triplicate. 12 concentrations of each compound are used and each concentration is tested in duplicate measurements.
(§3) HCT 116 human colorectal carcinoma (ATCC CCL 247) and NCI-H460 human lung carcinoma (ATCC HTB-177) cells are used in an Alamar Blue™ based proliferation assay.
(§4) The Alamar Blue™ assay is designed to quantitatively measure the proliferation of cells by incorporating a fluorometric/colorimetric growth indicator that is based on the detection of metabolic activity in viable cells.
(§5) HCT 116 and NCI-H460 cells are grown in IMDM medium containing 10% FCS and 2 mM L-glutamine. They are maintained at 37° C. and 5% CO2 in a humidified atmosphere with a split ratio of 1:5. For proliferation assays in the 96-well format, penicillin-streptomycin is added to the medium at a final concentration of 100 u/ml penicillin and 100 μg/ml streptomycin.
(§6) On day one of the experiment, 1000 cells in 180 μl medium are seeded into each well of a sterile 96-well flat-bottom plate. The plates are kept in the incubator overnight. The compounds are dissolved in DMSO at a concentration of 1000 μM. On day two of the experiment, 12 serial dilutions (1:3) of the compounds are prepared in medium containing 0.1% DMSO. 20 μl of the dilutions are added to each well to yield a final volume of 200 μl per well. As a control, medium containing 0.1% DMSO is added to the designated wells. The cells are then incubated for 72 h. After this incubation period, 20 μl of Alamar Blue™ is added to each well. After 6 h of incubation, the plates are measured in a fluorescence spectrophotometer (excitation 531 nm, emission 595 nm, slits 15, integrate time 0.1). All data points are measured in duplicates.
(§7) The mean value from the duplicates is taken and the background is subtracted. The “0.1% DMSO value” (the mean value obtained from wells containing cells plus 0.1% DMSO containing medium) is taken as “100% control”. […]
For orientation: The colour change of resazurin is a common sign of viable cells or microbes.

Experiment [3] addresses T2, human Plk1 enzyme (Homo sapiens, UniProt P53350).
T2 construct: The full-length coding region of the human Plk1 enzyme (residues 1-603); made in house; host or cells: Sf21 insect cells, baculovirus (pAcG2T vector, BD Biosciences)
The experiment is described as follows: Plk1 low enzyme inhibition (kinase) assay. As to conditions: casein substrate, 7.5 μM ATP. Type of experiment: biochemical. On the procedure: as §1
The compound is dissolved in DMSO at a concentration of 10 mM. For the proliferation assay and the first kinase assay the compound is freshly dissolved. For the second kinase assay a 10 mM stock solution in DMSO is used.
A baculoviral expression system is used to generate full-length recombinant Plk1 enzyme for the assay. Casein from bovine milk is used as a substrate. All other reagents are from the highest grade of purity commercially available. […]

The test system of experiment [4] is HCT 116 human colorectal carcinoma cells. The experiment is described as follows: Alamar Blue cell proliferation assay, HCT 116. Type of experiment: cell-based. The settings on record: HCT 116 cells, 72 h. The method, then: as §1, §2, §3, §4, §5, §6, §7
Setting [5] is: measurement 1, read-out: Measurement 1 EC50.
The mark [6] stands for this setting: measurement 2, read-out: Measurement 2 EC50.
[7] abbreviates: measurement 3, read-out: Measurement 3 EC50.

Broadly, the EC50 is the concentration giving half of the maximal effect.

T2 sequence (P53350 whole entry, the tested form may be a part): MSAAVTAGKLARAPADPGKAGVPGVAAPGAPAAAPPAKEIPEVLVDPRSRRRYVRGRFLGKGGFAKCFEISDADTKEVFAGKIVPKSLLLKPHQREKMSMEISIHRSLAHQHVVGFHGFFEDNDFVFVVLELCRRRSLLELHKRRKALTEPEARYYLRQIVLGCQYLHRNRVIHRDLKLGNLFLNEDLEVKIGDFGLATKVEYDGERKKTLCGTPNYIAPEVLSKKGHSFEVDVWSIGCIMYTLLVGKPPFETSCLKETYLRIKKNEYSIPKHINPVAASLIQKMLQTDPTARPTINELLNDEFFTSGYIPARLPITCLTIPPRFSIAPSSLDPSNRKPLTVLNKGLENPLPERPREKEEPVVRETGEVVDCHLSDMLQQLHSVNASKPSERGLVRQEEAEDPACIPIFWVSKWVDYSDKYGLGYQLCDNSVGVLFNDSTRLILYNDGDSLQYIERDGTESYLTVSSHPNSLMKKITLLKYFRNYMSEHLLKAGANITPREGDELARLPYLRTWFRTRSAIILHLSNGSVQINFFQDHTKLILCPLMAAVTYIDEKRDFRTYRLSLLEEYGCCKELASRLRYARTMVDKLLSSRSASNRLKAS

For the molecule `CCC1(O)C(=O)N(C)c2cnc(Nc3ccc(C(=O)N[C@H]4CC[C@H](N5CCN(CC6CC6)CC5)CC4)cc3OC)nc2N1C(C)C` (some centres unmarked) [compound 12B], the IC50 is 9.5 µM in experiment [1]; 0.008 µM in experiment [3] (mean of 2 independent experiments, read-out: Mean IC50); 0.0081 µM and 0.0079 µM in experiment [3] (single experiments (experiment number 1, 2), read-out: IC50). In addition, the EC50 in experiment [2] (mean of 3, read-out: Mean EC50) worked out at 0.43 µM; in experiment [2] (setting [5]), 0.517 µM; in experiment [2] (setting [6]), 0.471 µM; in experiment [2] (setting [7]), 0.302 µM; in experiment [4] (mean of 3, read-out: Mean EC50), 0.273 µM; in experiment [4] (setting [5]), 0.311 µM. The EC50 was 0.335 µM in experiment [4] (setting [6]) and 0.174 µM in experiment [4] (setting [7]).
